Earlier results as cited in US20170119738A1, “PHARMACEUTICAL COMPOSITIONS FOR RIZATRIPTAN” (Dr. Reddy's Laboratories, Ltd., priority 2015, published 2017).

Tests used:
[1] = system: human cloned 5-HT1B/1D receptors

CN(C)CCc1c[nH]c2ccc(Cn3cncn3)cc12 [Rizatriptan, N,N-dimethyl-2-[5-(1H-1,2,4-triazol-1-ylmethyl)-1H-indol-3-yl]ethanamine]
binding affinity [1]: high affinity
pain-free response at 2 hours, symptom-free response at 2 hours, 24 hour sustained pain-free response (migraine headache; oral 10 mg vs oral sumatriptan, naratriptan, zolmitriptan (Adelman et al. 2001)): more effective
effectiveness for pain relief (PR) and pain freedom (PF) (migraine headache; oral 10 mg vs other oral triptans (Ng-Mak et al. 2007)): significantly more effective than other oral triptans
